Where a SMILES comes first, the peptide text is derived from it. Bridges are numbered along the chain shown (N, C = ends). [ ]: non-standard residue; d: D form. Trp(1-CH2COOH) = N[C@@H](Cc1cn(CC(=O)O)c2ccccc12)C(=O)O; Hyp = O=C(O)[C@@H]1C[C@@H](O)CN1; NMeNle = CCCC[C@H](NC)C(=O)O; NMeA = CN[C@@H](C)C(=O)O; Dab = NCC[C@H](N)C(=O)O; Dap = NC[C@H](N)C(=O)O; Sar = CNCC(=O)O
Assays:
[1] = Binding affinity to human recombinant Hsp90 expressed in Escherichia coli BL21 (DE3) cells assessed as dissociation constant
[2] = Binding affinity to Hsp90 (unknown origin) expressed in Escherichia coli BL21 (DE3) cells assessed as inhibition constant by NMR STD analysis; parameters: species or system Homo sapiens
[3] = molecular target: Stimulator of interferon genes protein (Homo sapiens, UniProt Q86WV6); test: Binding affinity to N-terminal His-tagged wild type human STING CTD ([…]) expressed in Escherichia coli BL21 (DE3) cells assessed as dissociation constant by NMR analysis
[4] = Oral bioavailability in mouse at 2 mg/kg; assay type: ADME, organism-based; conditions: in vivo
[5] = Oral bioavailability in rat at 2 mg/kg by LC-MS/MS analysis; assay type: ADME, organism-based; conditions: in vivo
[6] = Oral bioavailability in Beagle dog at 2 mg/kg; assay type: ADME, organism-based, Canis lupus familiaris; conditions: in vivo
[7] = Oral bioavailability in monkey at 5 mg/kg; assay type: ADME, organism-based, Macaca mulatta; conditions: rhesus monkey, in vivo
[8] = Binding affinity to Hsp90 (unknown origin) assessed as dissociation constant; parameters: species or system Homo sapiens
[9] = molecular target: T1, Programmed cell death protein 1/Programmed cell death 1 ligand 1 (Homo sapiens, UniProt Q15116+Q9NZQ7); test: Inhibition of PD-1/PD-L1 (unknown origin) protein-protein interaction incubated for 1 hr by HTRF assay; assay type: protein-complex assay
[10] = molecular target: T1, Programmed cell death protein 1/Programmed cell death 1 ligand 1; test: Inhibition of PD-1/PD-L1 (unknown origin) interaction expressed in human HEK293T cells by HTRF analysis; assay type: cell-based
[11] = molecular target: T1, Programmed cell death protein 1/Programmed cell death 1 ligand 1; test: Inhibition of PD-1/PD-L1 (unknown origin) protein-protein interaction expressed in HEK293 cells by HTRF method; assay type: cell-based
[12] = Binding affinity to human Hsp90 expressed in Escherichia coli BL21 (DE3) cells assessed as inhibition constant

T1 sequence (Q15116 whole entry): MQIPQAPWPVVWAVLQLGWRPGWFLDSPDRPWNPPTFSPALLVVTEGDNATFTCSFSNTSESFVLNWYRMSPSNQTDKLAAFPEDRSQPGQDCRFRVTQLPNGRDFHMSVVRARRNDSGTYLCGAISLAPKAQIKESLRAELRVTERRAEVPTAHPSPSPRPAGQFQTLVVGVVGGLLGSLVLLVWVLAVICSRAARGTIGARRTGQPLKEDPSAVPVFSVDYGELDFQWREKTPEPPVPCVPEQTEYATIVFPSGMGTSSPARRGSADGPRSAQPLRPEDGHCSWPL
T1 sequence (Q9NZQ7 whole entry): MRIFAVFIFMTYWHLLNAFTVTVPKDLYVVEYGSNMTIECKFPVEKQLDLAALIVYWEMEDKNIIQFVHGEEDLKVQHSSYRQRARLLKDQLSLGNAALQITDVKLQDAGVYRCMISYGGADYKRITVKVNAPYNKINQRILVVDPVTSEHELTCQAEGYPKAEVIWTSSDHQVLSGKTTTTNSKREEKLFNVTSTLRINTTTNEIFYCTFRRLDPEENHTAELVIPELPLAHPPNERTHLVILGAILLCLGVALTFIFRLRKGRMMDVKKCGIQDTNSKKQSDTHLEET
Sequence of Stimulator of interferon genes protein (Q86WV6 whole entry): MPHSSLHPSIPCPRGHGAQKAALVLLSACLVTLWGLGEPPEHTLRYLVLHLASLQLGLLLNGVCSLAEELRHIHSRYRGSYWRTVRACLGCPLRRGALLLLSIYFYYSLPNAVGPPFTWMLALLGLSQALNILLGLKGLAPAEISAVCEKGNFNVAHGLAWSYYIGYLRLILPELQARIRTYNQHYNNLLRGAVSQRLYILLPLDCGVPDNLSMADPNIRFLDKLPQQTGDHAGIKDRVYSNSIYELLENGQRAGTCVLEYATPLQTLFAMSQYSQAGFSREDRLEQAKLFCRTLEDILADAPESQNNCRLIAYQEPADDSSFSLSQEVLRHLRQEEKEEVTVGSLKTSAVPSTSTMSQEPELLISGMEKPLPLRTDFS

Which Kd [1] does the source give for `O=C(O)c1ccc(-c2ccc(F)cc2)cc1` here?
The Kd was 300 µM.

With `O=C(NS(=O)(=O)c1ccc(NCCSc2ccccc2)c([N+](=O)[O-])c1)c1ccc(-c2ccc(F)cc2)cc1` as the compound, how does the Ki [2] read?
Its Ki is 0.036 µM.

Which Kd [3] does the source give for `COc1cc2cc(C(=O)CCC(=O)O)sc2cc1OC` here?
The Kd was 18 µM.

For `Oc1cccc2c1CCCC2`, which Kd [1] is on record?
The Kd was 4300 µM.

Which Ki [2] does the source give for `O=C(O)c1ccc(-c2ccc(F)cc2)cc1/C=C/c1cccc(-c2ccccc2)c1` here?
The Ki was 1.4 µM.

Which results are given for `COc1cccc(Nc2ncnn3ccc(CN4CC[C@@H](N)[C@@H](O)C4)c23)c1`?
bioavailability [4]: 29.7%; bioavailability [5]: 29.7%; bioavailability [6]: 29.7%; bioavailability [7]: 8%

For `Cc1cccc(C2c3[nH]c4ccccc4c3CC3C(=O)N(c4ccccc4C(=O)O)C(=O)N32)c1` (stereo not given), which Kd [8] is on record?
Its Kd is 177 µM.

With `Oc1ccc(-c2ccccc2)cc1` as the compound, how does the Kd [1] read?
Its Kd is 6000 µM.

What does the source list for `CCCC[C@H]1C(=O)N(C)[C@@H](CCCC)C(=O)N[C@@H](CCCNC(=N)N)C(=O)N[C@H](C(=O)NCC(N)=O)CSCC(=O)N[C@@H](Cc2ccccc2)C(=O)N(C)[C@@H](C)C(=O)N[C@@H](CC(N)=O)C(=O)N2CCC[C@H]2C(=O)N[C@@H](Cc2c[nH]cn2)C(=O)N[C@@H](CC(C)C)C(=O)N(C)CC(=O)N[C@@H](Cc2c[nH]c3ccccc23)C(=O)N[C@@H](CO)C(=O)N[C@@H](Cc2c[nH]c3ccccc23)C(=O)N1C` ({CH2CO}-F[NMeA]NPHL[Sar]WSW[NMeNle][NMeNle]RCG-NH2; thioether N-14)?
IC50 [9]: 0.009 µM; IC50 [10]: 0.06 µM

With `CCCC[C@H]1C(=O)N(C)[C@@H](CCCC)C(=O)N[C@@H](CC(C)C)C(=O)N[C@H](C(=O)NCC(N)=O)CSCC(=O)N[C@@H](Cc2ccc(O)cc2)C(=O)N(C)[C@@H](C)C(=O)N[C@@H](CC(N)=O)C(=O)N2CCC[C@H]2C(=O)N[C@@H](CN)C(=O)N[C@@H](CC(C)C)C(=O)N2C[C@H](O)C[C@H]2C(=O)N[C@@H](Cc2c[nH]c3ccccc23)C(=O)N[C@@H](CCN)C(=O)N[C@@H](Cc2cn(CC(=O)O)c3ccccc23)C(=O)N1C` ({CH2CO}-Y[NMeA]NP[Dap]L[Hyp]W[Dab][Trp(1-CH2COOH)][NMeNle][NMeNle]LCG-NH2; thioether N-14) as the compound, how does the IC50 [11] read?
The IC50 was 0.00027 µM.

For `CN(C)CC[C@H](CSc1ccccc1)Nc1ccc(S(=O)(=O)NC(=O)c2ccc(N3CCN(Cc4ccccc4-c4ccc(Cl)cc4)CC3)cc2)cc1[N+](=O)[O-]` [ABT 737], which Ki [12] is on record?
Its Ki is less than 0.001 µM.

From ChEMBL document CHEMBL5537202, “Perspectives on Nuclear Magnetic Resonance Spectroscopy in Drug Discovery Research” (J Med Chem, 2024)
